The record followed here is patent US5869448A, “Cyclic CS-1 peptidomimetics, compositions and methods of using same” (Cytel Corporation, priority 1995, dated 1999).

Positions of bridges follow the written chain, without caps; N, C: chain ends. Non-standard residues stand in square brackets, D forms with d. Residues, ends and D or L forms follow the SMILES beside them. No end group written: not given here. *: point of attachment. PhAc = O=C(Cc1ccccc1)*

The target of one test is T1, VLA-4/CS-1 (Homo sapiens, UniProt P05556+P13612).
T1 construct: inflammatory cells that contain the VLA-4 receptor [Jurkat cells; host or cells: Jurkat (human T lymphoblastic line)
T1 sequence (P13612 34-1032): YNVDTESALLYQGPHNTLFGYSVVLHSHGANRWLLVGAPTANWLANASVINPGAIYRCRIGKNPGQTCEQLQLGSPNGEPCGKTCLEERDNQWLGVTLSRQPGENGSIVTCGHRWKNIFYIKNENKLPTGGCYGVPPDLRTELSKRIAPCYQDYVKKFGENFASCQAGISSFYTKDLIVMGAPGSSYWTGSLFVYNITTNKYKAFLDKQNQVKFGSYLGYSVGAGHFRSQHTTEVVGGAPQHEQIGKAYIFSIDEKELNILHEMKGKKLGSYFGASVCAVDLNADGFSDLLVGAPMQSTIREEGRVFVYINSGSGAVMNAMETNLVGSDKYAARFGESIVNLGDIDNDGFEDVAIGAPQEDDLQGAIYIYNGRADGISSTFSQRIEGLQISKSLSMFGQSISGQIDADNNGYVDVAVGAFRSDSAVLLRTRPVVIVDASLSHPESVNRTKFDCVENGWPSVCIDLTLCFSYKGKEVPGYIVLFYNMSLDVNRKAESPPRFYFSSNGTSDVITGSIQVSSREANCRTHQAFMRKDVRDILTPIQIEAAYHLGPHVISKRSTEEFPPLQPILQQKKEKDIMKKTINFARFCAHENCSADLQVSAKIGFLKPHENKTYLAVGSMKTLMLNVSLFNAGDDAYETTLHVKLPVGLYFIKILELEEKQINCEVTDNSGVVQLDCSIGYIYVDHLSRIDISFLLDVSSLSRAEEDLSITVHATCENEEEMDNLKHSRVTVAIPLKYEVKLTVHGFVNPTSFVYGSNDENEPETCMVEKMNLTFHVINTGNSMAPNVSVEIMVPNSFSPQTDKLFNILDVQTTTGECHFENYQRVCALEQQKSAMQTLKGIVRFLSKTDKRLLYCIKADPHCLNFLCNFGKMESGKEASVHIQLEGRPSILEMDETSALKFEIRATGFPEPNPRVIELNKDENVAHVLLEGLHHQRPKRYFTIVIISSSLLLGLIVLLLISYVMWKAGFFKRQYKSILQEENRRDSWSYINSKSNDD
T1 sequence (P05556 21-798): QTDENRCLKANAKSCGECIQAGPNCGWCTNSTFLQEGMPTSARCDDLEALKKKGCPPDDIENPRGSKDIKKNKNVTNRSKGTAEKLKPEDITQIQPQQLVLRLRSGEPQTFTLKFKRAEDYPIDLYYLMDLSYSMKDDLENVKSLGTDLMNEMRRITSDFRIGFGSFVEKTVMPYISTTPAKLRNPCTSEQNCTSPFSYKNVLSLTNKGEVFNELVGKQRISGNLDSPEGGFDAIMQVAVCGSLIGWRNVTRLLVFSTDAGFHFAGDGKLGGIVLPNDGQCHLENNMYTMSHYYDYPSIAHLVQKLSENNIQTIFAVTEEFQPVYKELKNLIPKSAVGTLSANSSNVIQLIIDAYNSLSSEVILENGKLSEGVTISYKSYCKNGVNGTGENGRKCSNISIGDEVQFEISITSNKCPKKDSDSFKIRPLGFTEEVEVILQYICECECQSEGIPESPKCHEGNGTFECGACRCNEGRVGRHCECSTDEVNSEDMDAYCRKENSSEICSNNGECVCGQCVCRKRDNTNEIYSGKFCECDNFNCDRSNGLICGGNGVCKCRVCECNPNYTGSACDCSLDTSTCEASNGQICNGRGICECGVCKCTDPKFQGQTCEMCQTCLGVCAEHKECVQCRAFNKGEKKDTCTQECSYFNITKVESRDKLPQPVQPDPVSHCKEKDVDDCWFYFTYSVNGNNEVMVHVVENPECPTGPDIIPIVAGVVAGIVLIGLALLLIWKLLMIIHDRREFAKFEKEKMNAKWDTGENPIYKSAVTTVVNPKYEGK
The experiment in a line: In vitro inhibition of binding of 51Cr-labeled Jurkat cells to solid phase-bound CS-1 peptide. The test is classed as cell-based. Particulars: Table 1; normalized IC50, standard peptide of SEQ ID NO:6 = 1. The method, then: Binding inhibition is measured here as a concentration of peptide that inhibits one-half the binding between a standard number of Jurkat cells and a standard amount of CS-1 peptide bound to the surface of a microtiter plate well. Those concentrations are conveniently expressed as IC50 values, smaller numbers indicating a lower concentration required to inhibit 50 percent binding and therefore greater potency. Further specifics of this assay are provided hereinafter.
Jurkat cells (ATCC TIB 152), a human T lymphoblastic line, labeled with ^51 chromium were used to assay in vitro binding inhibition provided by various peptides discussed herein.
The plates were prepared as follows: The 25-mer CS-1 peptide (SEQ ID NO:5) dissolved at 0.5-1 μg/ml in a buffer of 0.1M NaHCO3 at pH 9.5 that also contained 10 μg/ml of bovine serum albumin (BSA) or a conjugate of the CS-1 peptide linked to ovalbumin (CS-1-OVA) dissolved at 1-2.5 μg/ml in the same buffer was used as the substrate. Each well of the microtiter plates was coated with 50 μl of substrate or buffer alone for controls. The wells were permitted to dry out completely and were then rinsed twice with PBS at pH 7.4. Non-specific binding sites of each well were then blocked using 200 μl per well of RPMI/1 percent BSA for two hours at room temperature. Both solid phase-affixed substrates provided similar results.
Jurkat cells (3-5×10^6 cells) were placed into a 15 ml FALCON™ round-bottom tube with a cap. The tube was centrifuged, and the extra medium was then removed.
Two hundred microliters of a ^51 Cr labeling solution were added to the centrifuged cells and maintained in contact with the cells for 90-120 minutes in a warm room. This procedure typically provides about 50,000-100,000 cpm/well with about 80-100 percent cell viability. Longer contact times provide a greater amount of labeling but lower cell viability.
The labeled cells were washed with (i) complete medium, (ii) 1 mM EDTA/PBS and then (iii) RPM1/1 percent BSA free of serum components. The cells were centrifuged after each washing. The cells were finally resuspended in serum-free RPMI/1 percent BSA at a concentration of 1×10^6 viable cells/ml, which provides a concentration that is diluted by one-half in the assay.
Cyclic inhibitor peptides were prepared as stock solutions at 20 mg/ml in DMSO in 1.5 ml cryogenic screwcap vials, and were stored at -70° C. Using FLOW™ round-bottom or V-bottom microtiter plates, the inhibitor peptides were prepared at twice the assay concentration in RPMI/1 percent BSA at 60 μl/well.
Four initial dilutions were typically used.
The ^51 Cr-labeled cells (1×10^6 cells at 60 μl/well) were then admixed with the diluted cyclic peptide solutions. The admixtures were maintained at room temperature (about 22° C.) for 30 minutes.
One hundred microliters of each inhibitor peptide/cell admixture were transferred to the substrate-coated wells. This was done in triplicate for each dilution. The resulting plates were incubated for 30 minutes at 37° C. and then washed gently three times with RPMI/1 percent BSA at 200 μl/well. Binding was observed microscopically, particularly after the second wash.
The bound cells were then lysed by the addition of a 0.5 percent solution of sodium dodecylsulfate in water at 100 μl/well. The resulting solutions were then processed for counting and calculation of IC50 values following usual procedures. Appropriate positive and negative controls were used with each plate so that the results of separate assays could be normalized and compared.
The potency data of Table 1 and Table 2 are so normalized. The absolute IC50 value for the peptide of SEQ ID NO:7 is 0.3 μM.
Take `CC(C)C[C@@H]1NC(=O)[C@H](Cc2ccccc2)NC(=O)[C@H](CCC(=O)O)NC(=O)[C@@H]2CCCN2C(=O)CNC(=O)[C@@H](N)CSSC[C@@H](C(N)=O)NC(=O)[C@H](Cc2ccccc2)NC(=O)[C@H](CC(=O)O)NC1=O` [compound 23] (H-CGPEFLDFC-NH2; disulfide 1-9): the “Relative Potency” value turned out to be 9.
For the molecule `CC(C)C[C@@H]1NC(=O)[C@H](Cc2ccccc2)NC(=O)[C@H](CCC(=O)O)NC(=O)[C@@H](N)CSSC[C@@H](C(N)=O)NC(=O)[C@H](CO)NC(=O)[C@@H]2CCCN2C(=O)[C@H](Cc2ccccc2)NC(=O)[C@H](CC(=O)O)NC1=O` [compound 24] (H-CEFLDFPSC-NH2; disulfide 1-9), the “Relative Potency” value turned out to be 6.
For the molecule `CC(C)C[C@@H]1NC(=O)[C@H](Cc2ccccc2)NC(=O)[C@@H](N)CSSC[C@@H](C(N)=O)NC(=O)[C@H]([C@@H](C)O)NC(=O)[C@H](CO)NC(=O)[C@@H]2CCCN2C(=O)[C@H](Cc2ccccc2)NC(=O)[C@H](CC(=O)O)NC1=O` [compound 15] (H-CFLDFPSTC-NH2; disulfide 1-9), the “Relative Potency” value is listed as 81.
`CC(C)C[C@@H]1NC(=O)[C@H](CCC(=O)O)NC(=O)[C@@H]2CCCN2C(=O)[C@@H](N)CSSC[C@@H](C(N)=O)NC(=O)[C@H](CO)NC(=O)[C@@H]2CCCN2C(=O)[C@H](Cc2ccccc2)NC(=O)[C@H](CC(=O)O)NC1=O` [compound 33] (H-CPELDFPSC-NH2; disulfide 1-9): the “Relative Potency” value is on record as 31.
Still for that read-out and setting: the result for `CC(C)C[C@@H]1NC(=O)[C@H](Cc2ccccc2)NC(=O)[C@@H](N)CSSC[C@@H](C(N)=O)NC(=O)[C@H](C(C)C)NC(=O)[C@H]([C@@H](C)O)NC(=O)[C@H](CO)NC(=O)[C@@H]2CCCN2C(=O)[C@H](Cc2ccccc2)NC(=O)[C@H](CC(=O)O)NC1=O` [compound 21] (H-CFLDFPSTVC-NH2; disulfide 1-10) reads 19; that for `NC(=O)[C@@H]1CCCN1C(=O)[C@@H]1CSSC[C@H](NC(=O)[C@@H](N)Cc2ccccc2)C(=O)N[C@@H](CC(=O)O)C(=O)N1` [compound 30] (H-FCDCP-NH2; disulfide 2-4), less than 1.
In the case of SFDFS-NH2 [compound 31], the “Relative Potency” value is reported as less than 1.
Take `CC(=O)N[C@@H](Cc1ccccc1)C(=O)N[C@@H](CS)C(=O)N[C@@H](CC(=O)O)C(=O)N[C@@H](Cc1ccccc1)C(=O)N[C@@H](CS)C(N)=O` [compound 18] (Ac-FCDFC-NH2): the “Relative Potency” value is listed as 41.
On to `NC(=O)[C@@H]1CSSC[C@H](NC(=O)[C@@H](N)Cc2ccccc2)C(=O)N[C@@H](CC(=O)O)C(=O)N[C@@H](Cc2ccccc2)C(=O)N1` [compound 25] (H-FCDFC-NH2; disulfide 2-5), for which the “Relative Potency” value is 3.
With `CC(=O)N[C@@H](CC(C)C)C(=O)N[C@@H](CC(=O)O)C(=O)N[C@@H](Cc1ccccc1)C(N)=O` [AcLDF--NH2] (Ac-Leu-Asp-Phe-NH2), the “Relative Potency” value was less than 1.
Consider `CC(C)C[C@H](N)C(=O)N[C@@H](CC(=O)O)C(=O)N[C@H](C(N)=O)C(C)C` [LDV--NH2, reference compound] (H-Leu-Asp-Val-NH2), for which the “Relative Potency” value was 0.
With `CC(C)C[C@@H]1NC(=O)[C@H](Cc2ccccc2)NC(=O)[C@H](CCC(=O)O)NC(=O)[C@@H](N)CSSC[C@@H](C(N)=O)NC(=O)[C@H]([C@@H](C)O)NC(=O)[C@H](CO)NC(=O)[C@@H]2CCCN2C(=O)[C@H](Cc2ccccc2)NC(=O)[C@H](CC(=O)O)NC1=O` [compound 22] (H-CEFLDFPSTC-NH2; disulfide 1-10), the “Relative Potency” value is 9.
With ILDVPILDVP-NH2 [compound 26], the “Relative Potency” value stood at 2.
With ILDFP-NH2 [compound 27], the “Relative Potency” value was found to be 2.
In the case of `CC(C)C[C@@H]1NC(=O)[C@H](Cc2ccccc2)NC(=O)[C@H](CCC(=O)O)NC(=O)[C@@H]2CCCN2C(=O)[C@@H](N)CSSC[C@@H](C(N)=O)NC(=O)[C@H](CO)NC(=O)[C@@H]2CCCN2C(=O)[C@H](Cc2ccccc2)NC(=O)[C@H](CC(=O)O)NC1=O` [compound 19] (H-CPEFLDFPSC-NH2; disulfide 1-10), the “Relative Potency” value turned out to be 6.
Take `O=C(O)C[C@@H]1NC(=O)[C@@H](NC(=O)Cc2ccccc2)CSCCNC(=O)[C@H](Cc2ccccc2)NC1=O` [.phi.AcCDF--NHCH2 CH2 --]: the “Relative Potency” value turned out to be 16.
For the molecule `CC(=O)N[C@@H](Cc1ccccc1)C(=O)N[C@H]1CSSC[C@@H](C(N)=O)NC(=O)[C@H](Cc2ccccc2)NC(=O)[C@H](CC(=O)O)NC1=O` [compound 17] (Ac-FCDFC-NH2; disulfide 2-5), the “Relative Potency” value amounted to 53.
On to `CC(C)C[C@@H]1NC(=O)[C@@H](N)CSSC[C@@H](C(N)=O)NC(=O)[C@H](Cc2ccccc2)NC(=O)[C@H](CC(=O)O)NC1=O` [compound 28] (H-CLDFC-NH2; disulfide 1-5), for which the “Relative Potency” value worked out at 1.
Turning to `CC(=O)N[C@@H](CC(C)C)C(=O)N[C@@H](CC(=O)O)C(=O)N[C@H](C(N)=O)C(C)C` [AcLDV--NH2, reference compound] (Ac-Leu-Asp-Val-NH2), the “Relative Potency” value is less than 1.
On the same count and under the same terms, the result for `CC(=O)N[C@@H](Cc1ccccc1)C(=O)N[C@H]1CSSC[C@@H](C(=O)N2CCC[C@H]2C(N)=O)NC(=O)[C@H](CC(=O)O)NC1=O` [compound 29] (Ac-FCDCP-NH2; disulfide 2-4) reads 1; that for `CC(C)C[C@H](N)C(=O)N[C@@H](CC(=O)O)C(=O)N[C@@H](Cc1ccccc1)C(N)=O` [LDF--NH2] (H-Leu-Asp-Phe-NH2), 0.
As for `NC(=O)[C@@H]1CSSC[C@H](NC(=O)Cc2ccccc2)C(=O)N[C@@H](CC(=O)O)C(=O)N[C@@H](Cc2ccccc2)C(=O)N1` [compound 7] (PhAc-CDFC-NH2; disulfide 1-4), the “Relative Potency” value turned out to be 954.

Staying with this test, now noted: Table 2; normalized, relative to standard peptide of SEQ ID NO:6.
Take `CC(=O)N[C@H]1CSSC[C@@H](C(=O)N2CCC[C@@H]2C(N)=O)NC(=O)[C@H](CC(=O)O)NC(=O)[C@H](CC(C)C)NC1=O` (Ac-CLDC[dP]-NH2; disulfide 1-4): the “Relative Potency” value is 0.
As for `O=C(O)C[C@@H]1NC(=O)[C@@H](NC(=O)Cc2ccccc2)CSCCNC(=O)[C@H](Cc2ccccc2)NC1=O` [.phi.AcCDF--NHCH2 CH2 --], the “Relative Potency” value is 16.1.
For `CC(=O)N[C@H]1CSSC[C@@H](C(N)=O)NC(=O)[C@H](Cc2ccccc2)NC(=O)[C@H](CC(=O)O)NC(=O)[C@H](CC(C)C)NC1=O` (Ac-CLDFC-NH2; disulfide 1-5), the “Relative Potency” value is “.91”.
On to `CC(C)C[C@@H]1NC(=O)[C@H](Cc2ccccc2)NC(=O)[C@H](CCC(=O)O)NC(=O)[C@@H]2CCCN2C(=O)[C@@H](N)CSSC[C@@H](C(N)=O)NC(=O)[C@H](Cc2ccccc2)NC(=O)[C@H](CC(=O)O)NC1=O` (H-CPEFLDFC-NH2; disulfide 1-8), for which the “Relative Potency” value amounted to 56.3.
Turning to `CC(C)C[C@@H]1NC(=O)[C@H](Cc2ccccc2)NC(=O)[C@@H](N)CSSC[C@@H](C(=O)N2CCC[C@H]2C(N)=O)NC(=O)[C@H](CC(=O)O)NC1=O` (H-CFLDCP-NH2; disulfide 1-5), the “Relative Potency” value is given as 0.

The same test, now with this note: XLDFp = 1.
Consider `CC(C)C[C@H](NC(=O)Cc1ccccc1)C(=O)N[C@@H](CC(=O)O)C(=O)N[C@@H](Cc1ccccc1)C(=O)N1CCC[C@@H]1C(N)=O` [XLDFp, .phi.Ac-LeuAspPhe-D-Pro-NH2, reference compound] (PhAc-LDF[dP]-NH2), for which the “CS-1 binding inhibition potencies relative to each other” value is roughly 1.

Staying with this test, now noted: times more potent than standard 10-mer.
With `CC(C)C[C@@H]1NC(=O)[C@H](Cc2ccccc2)NC(=O)[C@@H](N)CSSC[C@@H](C(N)=O)NC(=O)[C@@H]2CCCN2C(=O)[C@H](Cc2ccccc2)NC(=O)[C@H](CC(=O)O)NC1=O` [SEQ ID NO:10, CFLDFPC--NH2] (H-CFLDFPC-NH2; disulfide 1-7), the “inhibition potency relative to the Standard 10-mer of SEQ ID NO:6” value is on record as “about 253”.
On the same count and under the same terms, the result for `CC(C)C[C@H](NC(=O)Cc1ccccc1)C(=O)N[C@@H](CC(=O)O)C(=O)N[C@@H](Cc1ccccc1)C(=O)N1CCC[C@@H]1C(N)=O` [XLDFp, .phi.Ac-LeuAspPhe-D-Pro-NH2, reference compound] (PhAc-LDF[dP]-NH2) reads roughly 313; that for `CC(C)C[C@H](N)C(=O)N[C@@H](CC(=O)O)C(=O)N[C@H](C(N)=O)C(C)C` [LDV--NH2, reference compound] (H-Leu-Asp-Val-NH2), “zero”; that for `CC(=O)N[C@@H](CC(C)C)C(=O)N[C@@H](CC(=O)O)C(=O)N[C@H](C(N)=O)C(C)C` [AcLDV--NH2, reference compound] (Ac-Leu-Asp-Val-NH2), “about 1”.
